Assay results from ChEMBL document CHEMBL5370590, “Densely Functionalized Macrocyclic Sesquiterpene Pyridine Alkaloids from Maytenus austroyunnanensis” (J Nat Prod, 2023).
Activity calls are given as the source filed them. The calls are words filed in the database; no cut-off is given here.

Tests used:
BV-2 [1] = assay: Inhibition of LPS-induced NO production in mouse BV-2 cells at 10 uM pre-incubated for 2 hrs followed by LPS stimulation and measured after 24 hrs by Griess reagent based method; format: functional, cell-based; settings: time 26.0 hrs
BV-2 [2] = assay: Cytotoxicity against mouse BV-2 cells assessed as reduction in cell viability at 10 uM incubated for 24 hrs by MTT assay; format: toxicity, cell-based; settings: bv-2, 24 h
BV-2 [3] = assay: Inhibition of LPS-induced NO production in mouse BV-2 cells assessed as NO production at 10 uM pre-incubated for 2 hrs followed by LPS stimulation and measured after 24 hrs by Griess reagent based method relative to control; format: functional; design: scale not given: the % may be the effect or the level left; settings: time 26 hrs
BV-2 [4] = assay: Inhibition of LPS-induced NO production in mouse BV-2 cells assessed as NO production at 20 uM pre-incubated for 2 hrs followed by LPS stimulation and measured after 24 hrs by Griess reagent based method relative to control; format: functional; design: scale not given: the % may be the effect or the level left; settings: time 26 hrs

CC(=O)OC[C@]12[C@H](OC(C)=O)[C@@H](OC(C)=O)[C@@H]3[C@@H](OC(C)=O)[C@@]14O[C@@]3(C)COC(=O)c1cccnc1[C@@H](C)[C@H](C)C(=O)O[C@@H]([C@H](OC(C)=O)[C@@H]2OC(C)=O)[C@]4(C)O
inhibition (BV-2 [1]): Active
Activity (BV-2 [2]): Non-Toxic

C/C=C(\C)C(=O)O[C@@H]1[C@H](OC(C)=O)[C@@]2(COC(C)=O)[C@H](OC(C)=O)C(=O)[C@@H]3[C@@H](O)[C@@]24O[C@@]3(C)COC(=O)c2cccnc2CC[C@@](C)(OC(C)=O)C(=O)O[C@@H]1[C@]4(C)O
inhibition (BV-2 [1]): Active
Activity (BV-2 [2]): Non-Toxic

C/C=C(\C)C(=O)O[C@@H]1[C@H](OC(C)=O)[C@@H]2[C@@H](OC(=O)/C(C)=C/C)[C@@]34O[C@@]2(C)COC(=O)c2cccnc2CC[C@H](C)C(=O)O[C@@H]([C@H](O)[C@H](O)[C@@]13COC(C)=O)[C@]4(C)O
inhibition (BV-2 [1]): Active
Activity (BV-2 [2]): Non-Toxic

C/C=C(\C)C(=O)O[C@@H]1[C@@H]2[C@@H](OC(C)=O)[C@@]34O[C@@]2(C)COC(=O)c2cnccc2CC[C@@](C)(OC(C)=O)C(=O)O[C@@H]([C@H](OC(=O)/C(C)=C/C)[C@H](OC(C)=O)[C@@]3(COC(C)=O)[C@@H]1OC(C)=O)[C@]4(C)O
inhibition (BV-2 [1]): Active
Activity (BV-2 [2]): Non-Toxic

CC(=O)OC[C@]12[C@H](OC(C)=O)[C@@H](OC(C)=O)[C@@H]3[C@@H](OC(C)=O)[C@@]14O[C@@]3(C)COC(=O)c1cccnc1[C@@H](C)[C@H](C)C(=O)O[C@@H]([C@H](OC(=O)c1ccc(=O)n(C)c1)[C@@H]2OC(C)=O)[C@]4(C)O
Activity (BV-2 [2]): Toxic

CC(=O)OC[C@]12[C@H](OC(C)=O)C(=O)[C@@H]3[C@@H](OC(C)=O)[C@@]14O[C@@]3(C)COC(=O)c1cccnc1CC[C@@](C)(OC(C)=O)C(=O)O[C@@H]([C@H](OC(=O)c1ccccc1)[C@@H]2OC(C)=O)[C@]4(C)O
inhibition (BV-2 [1]): Active
Activity (BV-2 [2]): Non-Toxic

CC(=O)OC[C@]12[C@H](OC(C)=O)C(=O)[C@@H]3[C@@H](OC(C)=O)[C@@]14O[C@@]3(C)COC(=O)c1cccnc1CC[C@@](C)(OC(C)=O)C(=O)O[C@@H]([C@H](OC(=O)c1cccnc1)[C@@H]2OC(C)=O)[C@]4(C)O
Activity (BV-2 [2]): Non-Toxic

CC(=O)O[C@H]1C[C@](C)(O)[C@]23OC(C)(C)[C@H](C[C@H](OC(=O)c4cccnc4)[C@]2(CO)[C@H]1OC(C)=O)[C@H]3OC(C)=O
Activity (BV-2 [2]): Non-Toxic

C/C=C(\C)C(=O)O[C@H]1C[C@@H]2[C@@H](OC(=O)c3ccccc3)[C@@]3(OC2(C)C)[C@@]1(COC(C)=O)[C@@H](OC(C)=O)[C@@H](OC(C)=O)C[C@]3(C)O
Activity (BV-2 [3]): 59.61%
inhibition (BV-2 [1]): Active
Activity (BV-2 [2]): Non-Toxic

Oc1ccc(/C=C/c2cc(O)cc(O)c2)cc1 [RESVERATROL]
Activity (BV-2 [4]): 21.38%

C/C=C(\C)C(=O)O[C@H]1[C@@H]2[C@@H](OC(C)=O)[C@@]34O[C@@]2(C)COC(=O)c2cccnc2CC[C@@](C)(OC(C)=O)C(=O)O[C@@H]([C@H](OC(C)=O)[C@H](OC(C)=O)[C@@]3(COC(C)=O)[C@@H]1OC(C)=O)[C@]4(C)O
inhibition (BV-2 [1]): Active
Activity (BV-2 [2]): Non-Toxic

C/C=C(\C)C(=O)O[C@@H]1[C@H](OC(C)=O)[C@@]2(COC(C)=O)[C@H](OC(C)=O)C(=O)[C@@H]3[C@@H](OC(C)=O)[C@@]24O[C@@]3(C)COC(=O)c2cccnc2CC[C@@](C)(OC(C)=O)C(=O)O[C@@H]1[C@]4(C)O
inhibition (BV-2 [1]): Active
Activity (BV-2 [2]): Non-Toxic

C/C=C(\C)C(=O)O[C@H]1[C@@H]2[C@@H](OC(C)=O)[C@@]34O[C@@]2(C)COC(=O)c2cnccc2CC[C@@](C)(OC(C)=O)C(=O)O[C@@H]([C@H](OC(C)=O)[C@H](OC(C)=O)[C@@]3(COC(C)=O)[C@@H]1OC(C)=O)[C@]4(C)O
inhibition (BV-2 [1]): Active
Activity (BV-2 [2]): Non-Toxic
